Results from ChEMBL document CHEMBL1134944, “Design and synthesis of xanthine analogues as potent and selective PDE5 inhibitors” (Bioorg Med Chem Lett, 2002).
Activity calls are given as the source filed them. The calls are words filed in the database; no cut-off is given here.

Tests used:
[1] = molecular target: T1, cGMP-specific 3',5'-cyclic phosphodiesterase (Homo sapiens, UniProt O76074); assay: Concentration required to inhibit phosphodiesterase type 5 (PDE5) isolated from corpus cavernosum by 50% was determined
[2] = molecular target: Phosphodiesterases; PDE5 & PDE6 (Homo sapiens) (UniProt O76074+Q13956+P18545+P35913+O43924+P16499+P51160); assay: Selectivity for PDE6 compared to PDE5.; format: protein assay
[3] = Relative inhibition of PDEs 1-4 and PDE5
[4] = molecular target: T1, cGMP-specific 3',5'-cyclic phosphodiesterase; assay: Percentage inhibition against human phosphodiesterase type 5 isolated from corpus cavernosum at 100 nM.
[5] = species on record: Oryctolagus cuniculus; assay: 0.50 Hz electrical frequency stimulated (EFS) relaxation of rabbit corpus cavernosum at 25-30 nM; format: functional
[6] = species on record: Oryctolagus cuniculus; assay: 1.0 Hz electrical frequency stimulated (EFS) relaxation of rabbit corpus cavernosum at 25-30 nM; format: functional
[7] = species on record: Oryctolagus cuniculus; assay: 16.0 Hz electrical frequency stimulated (EFS) relaxation of rabbit corpus cavernosum at 25-30 nM; format: functional
[8] = species on record: Oryctolagus cuniculus; assay: 2.0 Hz electrical frequency stimulated (EFS) relaxation of rabbit corpus cavernosum at 25-30 nM; format: functional
[9] = species on record: Oryctolagus cuniculus; assay: 4.0 Hz electrical frequency stimulated (EFS) relaxation of rabbit corpus cavernosum at 25-30 nM; format: functional
[10] = species on record: Oryctolagus cuniculus; assay: 8.0 Hz electrical frequency stimulated (EFS) relaxation of rabbit corpus cavernosum at 25-30 nM; format: functional

Compound	IC50 [1] [nM]	Ratio [2]	inhibition [4] [%]	also measured
CC(C)Cn1c(=O)n(C)c(=O)c2c1nc(NC1CCCCC1)n2Cc1ccccc1	–	–	52	–
Cn1c(=O)c2c(nc(NC3CCCC3)n2Cc2ccccc2)n(C)c1=O	–	–	62	–
CCn1c(=O)c2c(nc(NC3CCCCC3)n2Cc2cccc(OC)c2)n(CC)c1=O	100	inactive	–	–
CCn1c(=O)c2c(nc(NC3CCCCC3)n2Cc2ccc(OC)c(Cl)c2)n(CC)c1=O	0.58	345	–	Ratio [3]: > 9500
Cn1c(=O)c2c(nc(NCC3(O)CCCCC3)n2Cc2ccccc2)n(C)c1=O	–	–	10	–
Cn1c(=O)c2c(nc(N[C@@H](CO)c3ccccc3)n2Cc2ccccc2)n(C)c1=O	–	–	0	–
CC(C)[C@@H](CO)Nc1nc2c(c(=O)n(C)c(=O)n2C)n1Cc1ccccc1	–	–	2	–
CC(C)[C@H](CO)Nc1nc2c(c(=O)n(C)c(=O)n2C)n1Cc1ccccc1	–	–	11	–
CCn1c(=O)c2c(nc(NC3CCCC3)n2Cc2ccccc2)n(CC)c1=O	–	21	91	–
Cn1c(=O)c2c(nc(N[C@H](CO)c3ccccc3)n2Cc2ccccc2)n(C)c1=O	–	–	5	–
Cn1c(=O)c2c(nc(N[C@@H]3CCC[C@H]3O)n2Cc2ccccc2)n(C)c1=O	–	–	17	–
CCn1c(=O)c2c(nc(NC3CCCC3)n2Cc2ccc(OC)c(F)c2)n(CC)c1=O	0.69	89	–	–
CCn1c(=O)c2c(nc(NC3CCCC3)n2Cc2ccc(OC)c(Cl)c2)n(CC)c1=O	1.1	118	–	–
CCn1c(=O)c2c(nc(NC3CCCC3)n2Cc2ccccc2)n(CC(C)C)c1=O	–	–	56	–
CCn1c(=O)c2c(nc(NC3CCCCC3)n2Cc2ccccc2)n(CC(C)C)c1=O	–	–	63	–
CCn1c(=O)c2c(nc(NC3CCCCC3)n2Cc2ccc3c(c2)OCO3)n(CC)c1=O	3.7	14	–	–
Cn1c(=O)c2c(nc(N[C@@H](CO)Cc3ccccc3)n2Cc2ccccc2)n(C)c1=O	–	–	4	–
CCn1c(=O)c2c(nc(NC3CCCCC3)n2Cc2ccc(OC)c(F)c2)n(CC)c1=O	0.3	350	–	Ratio [3]: > 28000
Cn1c(=O)c2c(nc(NC3CCCCC3)n2Cc2ccccc2)n(C)c1=O	–	–	54	–
Cn1c(=O)c2c(nc(N[C@H](CO)Cc3ccccc3)n2Cc2ccccc2)n(C)c1=O	–	–	0	–
CCn1c(=O)c2c(nc(NC3CCCCC3)n2Cc2ccc(OC)c(Br)c2)n(CC)c1=O	1.7	219	–	Ratio [3]: > 10000
CCn1c(=O)c2c(nc(NC3CCCCC3)n2Cc2ccc(OC)c(C)c2)n(CC)c1=O	19	58	–	–
CC(C)Cn1c(=O)n(C)c(=O)c2c1nc(NC1CCCC1)n2Cc1ccccc1	–	–	49	–

Further lines, with some results ahead:

IC50 [1] [nM]	Ratio [2]	inhibition [4] [%]	Compound	also measured
0.33	364	–	CCn1c(=O)c2c(nc(NC3CCCCC3)n2Cc2ccc(O)c(F)c2)n(CC)c1=O	Ratio [3]: > 12000
2	250	–	CCn1c(=O)c2c(nc(NC3CCCCC3)n2Cc2ccc(O)c(Cl)c2)n(CC)c1=O	–
0.82	182	–	CCn1c(=O)c2c(nc(NC3CCCC3)n2Cc2ccc(O)c(F)c2)n(CC)c1=O	Ratio [3]: > 4400
0.6	101	–	CCn1c(=O)c2c(nc(NC3CCCCC3)n2Cc2ccc(O)cc2)n(CC)c1=O	Relaxation [5]: 25%; Relaxation [6]: 50%; Relaxation [7]: 75%; Relaxation [8]: 75%; Relaxation [9]: 75%; Relaxation [10]: 75%; Ratio [3]: > 3000
2.1	33	–	CCn1c(=O)c2c(nc(NC3CCCC3)n2Cc2ccc(OC)cc2)n(CC)c1=O	–
1.8	261	–	CCn1c(=O)c2c(nc(NC3CCCC3)n2Cc2ccc(O)c(Cl)c2)n(CC)c1=O	–
4.5	133	–	CCn1c(=O)c2c(nc(NC3CCCCC3)n2Cc2ccc(O)c(C)c2)n(CC)c1=O	–
12	35	93	CCn1c(=O)c2c(nc(NC3CCCCC3)n2Cc2ccccc2)n(CC)c1=O	–
1.5	46	–	CCn1c(=O)c2c(nc(NC3CCCC3)n2Cc2ccc(O)cc2)n(CC)c1=O	–
2.6	51	–	CCn1c(=O)c2c(nc(NC3CCCCC3)n2Cc2ccc(OC)cc2)n(CC)c1=O	–
1.2	36	–	CCn1c(=O)c2c(nc(NC3CCCCC3)n2Cc2cccc(O)c2)n(CC)c1=O	–
